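How tested: cells in 96-well plates exposed to compound for 48 hours at five concentrations. The concentration for 50% growth inhibition is given as GI50. TGI marks complete inhibition of growth.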
What was measured:
Assay in all cases: DTP human tumour cell line panel, 48 h
786-0 renal = tested on: 786-0 renal
A498 renal = tested on: A498 renal
A549 NSCLC = tested on: A549 NSCLC
ACHN renal = tested on: ACHN renal
BT-549 breast = tested on: BT-549 breast
CAKI-1 renal = tested on: CAKI-1 renal
CCRF-CEM leukemia = tested on: CCRF-CEM leukemia
COLO 205 colon = tested on: COLO 205 colon
DU-145 prostate = tested on: DU-145 prostate
EKVX NSCLC = tested on: EKVX NSCLC
HCC-2998 colon = tested on: HCC-2998 colon
HCT-116 colon = tested on: HCT-116 colon
HCT-15 colon = tested on: HCT-15 colon
HL-60(TB) leukemia = tested on: HL-60(TB) leukemia
HOP-62 NSCLC = tested on: HOP-62 NSCLC
HOP-92 NSCLC = tested on: HOP-92 NSCLC
HS 578T breast = tested on: HS 578T breast
HT29 colon = tested on: HT29 colon
IGROV1 ovarian = tested on: IGROV1 ovarian
K-562 leukemia = tested on: K-562 leukemia
KM12 colon = tested on: KM12 colon
LOX IMVI melanoma = tested on: LOX IMVI melanoma
M14 melanoma = tested on: M14 melanoma
MALME-3M melanoma = tested on: MALME-3M melanoma
MCF7 breast = tested on: MCF7 breast
MDA-MB-231 breast = tested on: MDA-MB-231 breast
MDA-MB-435 = tested on: MDA-MB-435
MDA-MB-468 breast = tested on: MDA-MB-468 breast
MOLT-4 leukemia = tested on: MOLT-4 leukemia
NCI-H226 lung = tested on: NCI-H226 lung
NCI-H23 lung = tested on: NCI-H23 lung
NCI-H460 lung = tested on: NCI-H460 lung
NCI-H522 lung = tested on: NCI-H522 lung
NCI/ADR-RES ovarian = tested on: NCI/ADR-RES ovarian
OVCAR-3 ovarian = tested on: OVCAR-3 ovarian
OVCAR-4 ovarian = tested on: OVCAR-4 ovarian
OVCAR-5 ovarian = tested on: OVCAR-5 ovarian
OVCAR-8 ovarian = tested on: OVCAR-8 ovarian
PC-3 prostate = tested on: PC-3 prostate
RPMI-8226 leukemia = tested on: RPMI-8226 leukemia
RXF 393 renal = tested on: RXF 393 renal
SF-268 CNS = tested on: SF-268 CNS
SF-295 CNS = tested on: SF-295 CNS
SF-539 CNS = tested on: SF-539 CNS
SK-MEL-2 melanoma = tested on: SK-MEL-2 melanoma
SK-MEL-28 melanoma = tested on: SK-MEL-28 melanoma
SK-MEL-5 melanoma = tested on: SK-MEL-5 melanoma
SK-OV-3 ovarian = tested on: SK-OV-3 ovarian
SN12C renal = tested on: SN12C renal
SNB-19 CNS = tested on: SNB-19 CNS
SNB-75 CNS = tested on: SNB-75 CNS
SR leukemia = tested on: SR leukemia
SW-620 colon = tested on: SW-620 colon
T-47D breast = tested on: T-47D breast
TK-10 renal = tested on: TK-10 renal
U251 CNS = tested on: U251 CNS
UACC-257 melanoma = tested on: UACC-257 melanoma
UACC-62 melanoma = tested on: UACC-62 melanoma
UO-31 renal = tested on: UO-31 renal

## O=C(N/C(=C1/OCCN1Cc1ccccc1)[P+](c1ccccc1)(c1ccccc1)c1ccccc1)c1ccccc1
786-0 renal
  GI50: 10700 nM
  TGI: 23800 nM
A498 renal
  GI50: 16400 nM
  TGI: 31400 nM
A549 NSCLC
  GI50: 15100 nM
  TGI: 54400 nM
ACHN renal
  GI50: 13400 nM
  TGI: 26500 nM
BT-549 breast
  GI50: 2470 nM
  TGI: 8750 nM
CAKI-1 renal
  GI50: 5760 nM
  TGI: 21700 nM
CCRF-CEM leukemia
  GI50: 3840 nM
  TGI: 29900 nM
COLO 205 colon
  GI50: 2660 nM
  TGI: 7460 nM
DU-145 prostate
  GI50: 4460 nM
  TGI: 17400 nM
EKVX NSCLC
  GI50: 3630 nM
  TGI: 12200 nM
HCC-2998 colon
  GI50: 2680 nM
  TGI: 9860 nM
HCT-116 colon
  GI50: 3090 nM
  TGI: 12900 nM
HCT-15 colon
  GI50: 15600 nM
  TGI: 30200 nM
HL-60(TB) leukemia
  GI50: 1780 nM
  TGI: 5460 nM
HOP-62 NSCLC
  GI50: 11300 nM
  TGI: 25000 nM
HOP-92 NSCLC
  GI50: 1990 nM
  TGI: 7370 nM
HS 578T breast
  GI50: 3070 nM
  TGI: 20700 nM
HT29 colon
  GI50: 6130 nM
  TGI: 29800 nM
IGROV1 ovarian
  GI50: 2470 nM
  TGI: 9710 nM
K-562 leukemia
  GI50: 2080 nM
  TGI: > 100000 nM
KM12 colon
  GI50: 3400 nM
  TGI: 11900 nM
LOX IMVI melanoma
  GI50: 4120 nM
  TGI: 15100 nM
M14 melanoma
  GI50: 3670 nM
  TGI: 15700 nM
MALME-3M melanoma
  GI50: 1660 nM
  TGI: 3700 nM
MCF7 breast
  GI50: 2710 nM
  TGI: 11300 nM
MDA-MB-231 breast
  GI50: 2100 nM
  TGI: 5810 nM
MDA-MB-435
  GI50: 3200 nM
  TGI: 12000 nM
MDA-MB-468 breast
  GI50: 1450 nM
  TGI: 5680 nM
MOLT-4 leukemia
  GI50: 3360 nM
  TGI: 68300 nM
NCI-H226 lung
  GI50: 3910 nM
  TGI: 15600 nM
NCI-H23 lung
  GI50: 3160 nM
  TGI: 13300 nM
NCI-H460 lung
  GI50: 3710 nM
  TGI: 14600 nM
NCI-H522 lung
  GI50: 1830 nM
  TGI: 6360 nM
NCI/ADR-RES ovarian
  GI50: > 100000 nM
  TGI: > 100000 nM
OVCAR-3 ovarian
  GI50: 2780 nM
  TGI: 10800 nM
OVCAR-4 ovarian
  GI50: 5000 nM
  TGI: 21800 nM
OVCAR-5 ovarian
  GI50: 13500 nM
  TGI: 26800 nM
OVCAR-8 ovarian
  GI50: 4250 nM
  TGI: 16900 nM
PC-3 prostate
  GI50: 3770 nM
  TGI: 16400 nM
RPMI-8226 leukemia
  GI50: 1140 nM
  TGI: 3940 nM
RXF 393 renal
  GI50: 2460 nM
  TGI: 10300 nM
SF-268 CNS
  GI50: 3410 nM
  TGI: 15700 nM
SF-295 CNS
  GI50: 9920 nM
  TGI: 21900 nM
SF-539 CNS
  GI50: 6590 nM
  TGI: 19600 nM
SK-MEL-2 melanoma
  GI50: 2360 nM
  TGI: 6080 nM
SK-MEL-28 melanoma
  GI50: 3750 nM
  TGI: 14900 nM
SK-MEL-5 melanoma
  GI50: 1580 nM
  TGI: 2930 nM
SK-OV-3 ovarian
  GI50: 10300 nM
  TGI: 27200 nM
SN12C renal
  GI50: 3340 nM
  TGI: 11700 nM
SNB-19 CNS
  GI50: 2790 nM
  TGI: 10700 nM
SNB-75 CNS
  GI50: 1620 nM
  TGI: 10700 nM
SR leukemia
  GI50: 2700 nM
  TGI: 11600 nM
SW-620 colon
  GI50: 4510 nM
  TGI: 17100 nM
T-47D breast
  GI50: 2410 nM
  TGI: 12900 nM
TK-10 renal
  GI50: 4060 nM
  TGI: 16800 nM
U251 CNS
  GI50: 3240 nM
  TGI: 13000 nM
UACC-257 melanoma
  GI50: 2220 nM
  TGI: 5970 nM
UACC-62 melanoma
  GI50: 2050 nM
  TGI: 6710 nM
UO-31 renal
  GI50: 15500 nM
  TGI: 29100 nM

## N/C(=N\c1nc2ccccc2s1)NC(=O)Nc1ccc(Cl)cc1Cl
786-0 renal
  GI50: 456 nM
  TGI: 1760 nM
A498 renal
  GI50: 1640 nM
  TGI: 3730 nM
A549 NSCLC
  GI50: 878 nM
  TGI: 2840 nM
ACHN renal
  GI50: 574 nM
  TGI: 2080 nM
BT-549 breast
  GI50: 414 nM
  TGI: 5040 nM
CAKI-1 renal
  GI50: 389 nM
  TGI: 2210 nM
CCRF-CEM leukemia
  GI50: 360 nM
  TGI: 3800 nM
COLO 205 colon
  GI50: 491 nM
  TGI: 1780 nM
DU-145 prostate
  GI50: 1000 nM
  TGI: 3060 nM
EKVX NSCLC
  GI50: 489 nM
  TGI: 2660 nM
HCC-2998 colon
  GI50: 978 nM
  TGI: 2860 nM
HCT-116 colon
  GI50: 384 nM
  TGI: 1510 nM
HCT-15 colon
  GI50: 379 nM
  TGI: 1980 nM
HL-60(TB) leukemia
  GI50: 295 nM
HOP-62 NSCLC
  GI50: 397 nM
  TGI: 1810 nM
HOP-92 NSCLC
  GI50: 923 nM
  TGI: 3910 nM
HS 578T breast
  GI50: 289 nM
  TGI: 2430 nM
HT29 colon
  GI50: 341 nM
  TGI: 1150 nM
IGROV1 ovarian
  GI50: 558 nM
  TGI: 2350 nM
K-562 leukemia
  GI50: 370 nM
KM12 colon
  GI50: 439 nM
  TGI: 3600 nM
LOX IMVI melanoma
  GI50: 567 nM
  TGI: 1960 nM
M14 melanoma
  GI50: 390 nM
  TGI: 1840 nM
MALME-3M melanoma
  GI50: 454 nM
  TGI: 2130 nM
MCF7 breast
  GI50: 309 nM
  TGI: 1780 nM
MDA-MB-231 breast
  GI50: 571 nM
  TGI: 2180 nM
MDA-MB-435
  GI50: 160 nM
  TGI: 510 nM
MDA-MB-468 breast
  GI50: 271 nM
  TGI: 788 nM
MOLT-4 leukemia
  GI50: 536 nM
NCI-H226 lung
  GI50: 948 nM
  TGI: 2680 nM
NCI-H23 lung
  GI50: 835 nM
  TGI: 2440 nM
NCI-H460 lung
  GI50: 419 nM
  TGI: 1510 nM
NCI-H522 lung
  GI50: 194 nM
  TGI: 787 nM
NCI/ADR-RES ovarian
  GI50: 269 nM
  TGI: 937 nM
OVCAR-3 ovarian
  GI50: 359 nM
  TGI: 1340 nM
OVCAR-4 ovarian
  GI50: 1530 nM
  TGI: 5070 nM
OVCAR-5 ovarian
  GI50: 948 nM
  TGI: 3090 nM
OVCAR-8 ovarian
  GI50: 766 nM
  TGI: 4610 nM
PC-3 prostate
  GI50: 753 nM
  TGI: 3890 nM
RPMI-8226 leukemia
  GI50: 1120 nM
  TGI: 8960 nM
RXF 393 renal
  GI50: 357 nM
  TGI: 1690 nM
SF-268 CNS
  GI50: 1160 nM
  TGI: 23000 nM
SF-295 CNS
  GI50: 334 nM
  TGI: 1310 nM
SF-539 CNS
  GI50: 261 nM
  TGI: 842 nM
SK-MEL-2 melanoma
  GI50: 351 nM
  TGI: 1170 nM
SK-MEL-28 melanoma
  GI50: 1040 nM
  TGI: 5670 nM
SK-MEL-5 melanoma
  GI50: 352 nM
  TGI: 1710 nM
SK-OV-3 ovarian
  GI50: 434 nM
  TGI: 2210 nM
SN12C renal
  GI50: 566 nM
  TGI: 2210 nM
SNB-19 CNS
  GI50: 672 nM
  TGI: 5540 nM
SNB-75 CNS
  GI50: 230 nM
  TGI: 997 nM
SR leukemia
  GI50: 952 nM
SW-620 colon
  GI50: 455 nM
  TGI: 2460 nM
T-47D breast
  GI50: 421 nM
  TGI: 6420 nM
TK-10 renal
  GI50: 1910 nM
  TGI: 4280 nM
U251 CNS
  GI50: 458 nM
  TGI: 1750 nM
UACC-257 melanoma
  GI50: 2070 nM
  TGI: 17700 nM
UACC-62 melanoma
  GI50: 374 nM
  TGI: 3200 nM
UO-31 renal
  GI50: 503 nM
  TGI: 1960 nM
